Key:
TACO1 [1] = molecular target: T1, TACO1 (Homo sapiens, UniProt Q9BSH4); assay: competition with BODIPY-FL-GTPγS fluorescence binding; settings: pre-incubation with GMPPNP before BODIPY-FL-GTPγS; competitive
T1 construct: recombinant TACO1

TACO1 [2] = molecular target: T1, TACO1; assay: fluorescence increase of BODIPY-labelled nucleotide, saturation fit; assay type: binding; settings: labelled compound; 500 nM TACO1, 0-30 μM ligand, 10 min

Molecule | competition with BODIPY-FL-GTPγS fluorescence binding (TACO1 [1]) | Kd (TACO1 [2]) [µM]
Nc1nc2c(ncn2[C@@H]2O[C@H](COP(=O)(O)OP(=O)(O)NP(=O)(O)O)[C@@H](O)[C@H]2O)c(=O)[nH]1 [GMPPNP] | This effect was abolished by pre-incubation with the non-hydrolyzable GTP analog GMPPNP | –
BODIPY-FL-GTPγS | – | 25

From doi:10.64898/2025.12.18.695269, “Structural Basis of TACO1-Mediated Efficient Mitochondrial Translation” (bioRxiv, 2025)
